Measurements taken from patent US7332512B2, “Halogenated nitrobutadienes for controlling animal pests” (priority 2001, dated 2008).

How the values were obtained:
Assay type in all cases: in vivo
[1] = tested on: Adults of Ctenocephalides felis; assay: Test with cat fleas/oral uptake (Example L); settings: orally, 28 h
Method: Test with Cat Fleas/Oral Uptake
To produce a suitable formulation, a suitable solution of active compound is prepared from 20 mg of active compound and 1 ml of DMSO. 15 μl of this formulation are added to 3 ml of citrated cattle blood and stirred.
10 unfed adult fleas (Ctenocephalides felis, strain “Georgi”) are placed into a chamber (Ø 3.2 cm) whose top and bottom are closed with gauze. A metal cylinder whose underside is covered with parafilm is placed onto the chamber. The cylinder contains the 3 ml of blood/active compound formulation which can be taken up by the fleas through the paraffin membrane. Whereas the blood is warmed to 37° C., the temperature in the area of the flea chambers is adjusted to 25° C. Controls are mixed with the same volume of DMSO, without addition of a compound. The determinations are carried out in triplicate.
After 28 h, the mortality in % (=dead fleas) is determined.
Compounds which effect at least 25% kill of the fleas within 28 h are judged to be effective.

Lucilia cuprina larvae = assay: Blowfly larvae test/development-inhibitory action (Example N); settings: 48 h
Method: Blowfly Larvae Test/Development-Inhibitory Action
(§1) 20 mg of active compound are dissolved in 1 ml of dimethyl sulphoxide, more dilute concentrations are prepared by dilution with dist. H2O.
About 20 Lucilia cuprina larvae are introduced into a test tube which contains about 1 cm^3 of horse meat and 0.5 ml of the preparation of active compound to be tested. After 24 and 48 hours, the efficacy of the preparation of active compound is determined. The test tubes are transferred into a beaker whose bottom is covered with sand. After a further 2 days, the test tubes are removed and the pupae are counted.
The efficacy of the preparation of active compound is assessed by the number of flies that have hatched after 1.5 times the period of development of an untreated control. 100% means that no flies have hatched; 0% means that all flies have hatched normally.

[2] = tested on: caterpillars of the armyworm (Spodoptera frugiperda); assay: Spodoptera frugiperda test (Example J), dipped cabbage leaves; settings: 500 ppm active compound; 7 days; % only printed in method b344
Method: Spodoptera frugiperda Test
(§2) To produce a suitable preparation of active compound, 1 part by weight of active compound is mixed with the stated amounts of solvent and emulsifier, and the concentrate is diluted with emulsifier-containing water to the desired concentration.
Cabbage leaves (Brassica oleracea) are treated by being dipped into the preparation of active compound of the desired concentration and are populated with caterpillars of the armyworm (Spodoptera frugiperda) while the leaves are still moist.
After the desired period of time, the kill in % is determined. 100% means that all caterpillars have been killed; 0% means that none of the caterpillars have been killed.

[3] = tested on: eggs, larvae and pupae of the white fly (Bemisia tabaci); assay: Bemisia test (Example I), infected cotton plants dipped; settings: 500 ppm active compound; 6 days
Method: To produce a suitable preparation of active compound, 1 part by weight of active compound is mixed with the stated amounts of solvent and emulsifier, and the concentrate is diluted with water to the desired concentrations.
Cotton plants (Gossypium hirsutum) infected by eggs, larvae and pupae of the white fly (Bemisia tabaci) are dipped into a preparation of active compound of the desired concentration.
(§3) After the desired period of time, the kill in % is determined. 100% means that all animals have been killed; 0% means that none of the animals have been killed.

[4] = tested on: larvae of the mustard beetle (Phaedon cochleariae); assay: Phaedon larvae test (Example H), dipped cabbage leaves; settings: 500 ppm active compound; 6 days
Method: as §2
(§4) Cabbage leaves (Brassica oleracea) are treated by being dipped into the preparation of active compound of the desired concentration and are populated with larvae of the mustard beetle (Phaedon cochleariae) while the leaves are still moist.
(§5) After the desired period of time, the kill in % is determined. 100% means that all beetle larvae have been killed; 0% means that none of the beetle larvae have been killed.

[5] = tested on: larvae of the mustard beetle (Phaedon cochleariae); assay: Phaedon larvae test (Example B), dipped cabbage leaves; settings: 100 ppm active compound; 6 days
Method: as §2, §4, §5

Aphis gossypii = assay: Critical concentration test/root-systemic action (Example E), soil drench; settings: 20 ppm in soil; 10 days; root-systemic; savoy cabbage
Method: (§6) Critical Concentration Test/Root-Systemic Action
(§7) To produce a suitable preparation of active compound, 1 part by weight of active compound is mixed with the stated amount of solvent, the stated amount of emulsifier is added and the concentrate is diluted with water to the desired concentration.
(§8) The preparation of active compound is poured onto the soil of the infected savoy cabbage plant. In this way, the active compound can be taken up from the soil by the roots of the plants and can be transported into the leaves. Here, the concentration of active compound in the preparation is virtually immaterial, only the amount by weight per volume unit of soil, which is stated in ppm ([…]), matters.
(§9) The root-systemic action of the active compound is derived from the kill rate. It is 100% if all test animals have been killed and 0% if the number of test insects alive is the same as that for the untreated control.

Myzus persicae [6] = assay: Critical concentration test/root-systemic action (Example F), soil drench; settings: 20 ppm in soil; 10 days; root-systemic; savoy cabbage
Method: as §6, §7, §8, §9

[7] = tested on: cotton aphid (Aphis gossypii); assay: Aphis gossypii test (Example D), infested cotton leaves dipped; settings: 500 ppm active compound; 6 days
Method: as §2
Cotton leaves (Gossypium hirsutum) which are heavily infested by the cotton aphid (Aphis gossypii) are treated by being dipped into the preparation of active compound of the desired concentration.
(§10) After the desired period of time, the kill in % is determined. 100% means that all aphids have been killed; 0% means that none of the aphids have been killed.

[8] = tested on: green peach aphid (Myzus persicae); assay: Myzus test (Example G), infested cabbage leaves dipped; settings: 500 ppm active compound, 6 days
Method: as §2
Cabbage leaves (Brassica oleracea), which are heavily infested by the green peach aphid (Myzus persicae) are treated by being dipped into the preparation of active compound of the desired concentration.
as §10

Myzus persicae [9] = assay: Critical concentration test/root-systemic action (Example K), compound mixed with soil, broad beans; settings: 4 ppm in soil
Method: as §6, §7
The preparation of active compound is mixed intimately with the soil. Here, the concentration of the active compound in the preparation is virtually immaterial, only the amount by weight of active compound per volume unit of soil, which is stated in ppm ([…]) matters. The treated soil is filled into pots of a volume of 250 ml, and pregerminated broad beans are planted into these pots. In this way, the active compound can be taken up from the soil by the plant roots and be transported into the leaves.
The root-systemic action of the active compound is derived from the kill rate. It is 100% if all test animals have been killed and 0% if the number of test insects still alive is exactly the same as in the untreated control.

[10] = tested on: eggs of the diamondback moth (Plutella xylostella); assay: Plutella test (Example C), synthetic feed; settings: 150 ppm active compound; 7 days; kill of eggs and/or larvae
Method: To produce a suitable preparation of active compound, 1 part by weight of active compound is mixed with the stated amount of solvent and the concentrate is diluted with methanol to the desired concentrations.
The stated amount of the preparation of active compound of the desired concentration is pipetted onto a standardized amount of synthetic feed. After the methanol has evaporated, about 200-300 eggs of the diamondback moth (Plutella xylostella) are placed onto the feed.
After the desired period of time, the kill of the eggs and/or larvae in % is determined. 100% means that all animals have been killed; 0% means that none of the animals have been killed.

[11] = tested on: green peach aphid (Myzus persicae); assay: Myzus test (Example A), infested broad bean seedlings dipped; settings: 500 ppm active compound, 6 days
Method: To produce a suitable preparation of active compound, 1 part by weight of active compound is mixed with the stated amounts of solvent and emulsifier, and the concentrate is diluted with water to the desired concentration.
Broad bean seedlings (Vicia faba minor) which are infested by the green peach aphid (Myzus persicae) are dipped into a preparation of active compound of the desired concentration and placed into a plastic box.
as §3

[12] = tested on: adult Musca domestica, Reichswald strain (OP, SP, carbamate-resistant); assay: Test with flies (Musca domestica) (Example M), treated filter paper; settings: time of reading not given
Method: Test with Flies (Musca domestica)
as §1
2 ml of this active compound preparation are pipetted onto filter paper discs (Ø 9.5 cm) in Petri dishes of corresponding dimensions. After the filter discs have been dried, 25 test animals are transferred into the Petri dishes, which are then covered.
After 1, 3, 5, 24 and 48 hours, the activity of the active compound preparation is determined. 100% means that all flies have been killed; 0% means that none of the flies have been killed.

Structure (SMILES): CN(C(=C(Cl)Cl)/C(=C1/NCCN1Cc1ccc(Cl)nc1)[N+](=O)[O-])C(C)(C)C [Example I-12]
- % action/kill ([1]; 20 ppm in cattle blood): 30%
- % action/kill ([1]; 100 ppm in cattle blood): 70%
- % action/kill (Lucilia cuprina larvae; 20 ppm): 0%
- % action/kill (Lucilia cuprina larvae; 100 ppm): 100%
- Rate of activity after 7 d (days) [2]: 100%

Structure (SMILES): Cc1ccc(SC(=C(Cl)Cl)C(=C2NCCN2Cc2ccc(Cl)nc2)[N+](=O)[O-])cc1 [Example I-3, 2-chloro-5-[2-(2-(p-tolylthio)-3,3-dichloro-1-nitroallylidene)imidazolidin-1-ylmethyl]pyridine]
- % action/kill ([1]; 20 ppm in cattle blood): 0%
- % action/kill ([1]; 100 ppm in cattle blood): 50%

Structure (SMILES): O=[N+]([O-])/C(C(=C(Cl)Cl)N1CCCC1)=C1\NCCN1Cc1ccc(Cl)nc1 [Example I-10]
- Kill rate in % after 6 d (days) [3]: 100%
- % action/kill ([1]; 20 ppm in cattle blood): 40%
- % action/kill ([1]; 100 ppm in cattle blood): 100%

Structure (SMILES): O=[N+]([O-])/C(C(=C(Cl)Cl)N1CCOCC1)=C1\NCCN1Cc1ccc(Cl)nc1 [Example I-2, 2-chloro-5-[2-(2-morpholinyl-3,3-dichloro-1-nitro-allylidene)imidazolidin-1-ylmethyl]pyridine]
- Kill rate in % after 6 d (days) [3]: 100%
- % action/kill ([1]; 0.8 ppm in cattle blood): 0%
- % action/kill ([1]; 4 ppm in cattle blood): 0%
- % action/kill ([1]; 20 ppm in cattle blood): 80%
- % action/kill ([1]; 100 ppm in cattle blood): 80%
- Kill rate in % after 6 d (days) [4]: 100%
- Kill rate in % after 6 d (days) [5]: 100%
- Kill rate in % after 10 d (days) (Aphis gossypii): 100%
- Kill rate in % after 10 d (days) (Myzus persicae [6]): 100%
- Kill rate in % after 6 d (days) [7]: 100%
- Kill rate in % after 6 d (days) [8]: 100%
- % action/kill (Lucilia cuprina larvae; 20 ppm): 0%
- % action/kill (Lucilia cuprina larvae; 100 ppm): 100%
- % kill after weeks (Myzus persicae [9]; after 2 weeks): 100%
- % kill after weeks (Myzus persicae [9]; after 3 weeks): 100%
- % kill after weeks (Myzus persicae [9]; after 4 weeks): 99%
- Kill rate in % after 7 d (days) [10]: 100%
- Kill rate in % after 6 d (days) [11]: 100%
- % action/kill ([12]; 20 ppm): 0%
- % action/kill ([12]; 100 ppm): 50%

Structure (SMILES): O=[N+]([O-])/C(C(Cl)=C(Cl)Cl)=C1\NCCN1Cc1ccc(Cl)nc1 [Example I-1, 2-chloro-5-[2-(2,3,3-trichloro-1-nitroallylidene)imidazolidin-1-ylmethyl]pyridine]
- Kill rate in % after 10 d (days) (Aphis gossypii): 100%
- Kill rate in % after 10 d (days) (Myzus persicae [6]): 100%
- % action/kill (Lucilia cuprina larvae; 20 ppm): 0%
- % action/kill (Lucilia cuprina larvae; 100 ppm): 100%
- % kill after weeks (Myzus persicae [9]; after 2 weeks): 100%
- % kill after weeks (Myzus persicae [9]; after 3 weeks): 100%
- % kill after weeks (Myzus persicae [9]; after 4 weeks): 99%
- % kill after weeks (Myzus persicae [9]; after 5 weeks): 100%
- Kill rate in % after 6 d (days) [11]: 100%

Structure (SMILES): O=[N+]([O-])/C(C(=C(Cl)Cl)N1CCSCC1)=C1\NCCN1Cc1ccc(Cl)nc1 [Example I-11]
- % action/kill ([1]; 20 ppm in cattle blood): 0%
- % action/kill ([1]; 100 ppm in cattle blood): 70%
- Kill rate in % after 6 d (days) [4]: 100%
- Kill rate in % after 6 d (days) [8]: 100%
- % action/kill (Lucilia cuprina larvae; 20 ppm): 0%
- % action/kill (Lucilia cuprina larvae; 100 ppm): 100%
